In article PMC10974084, “Combination of Betulinic Acid Fragments and Carbonic Anhydrase Inhibitors—A New Drug Targeting Approach” (Pharmaceutics, 2024):

What was measured:
[1] = biological target: recombinant human carbonic anhydrase IX (Homo sapiens, UniProt Q16790); experiment: hCA IX esterase assay with p-nitrophenyl acetate; conditions: p-nitrophenyl acetate substrate, competitive inhibition, pH 7.5, 20 °C
Description: In this measurement, the enzymatically catalyzed hydrolysis of p-nitrophenyl acetate to p-nitrophenol was investigated. […] This was followed by measurement of the v-S-characteristics with inhibitor. […] For each run, 2 experimental series (biological replicate) were prepared simultaneously and measured for 10 min at a measurement interval of 8 s, also as a two-fold determination (technical replicate). […] The resulting reaction velocities, calculated from a calibration curve with p-nitrophenole under the same conditions, were plotted against the substrate concentration. The kinetic evaluation for competitive inhibition was then performed with the program GraphPad Prism.

[2] = system: A2780 ovarian cancer cells; experiment: SRB cytotoxicity assay, A2780; type: cell-based; conditions: Homo sapiens, A2780; SRB assay, 96 h incubation, mean ± SD; read-out: IC50 A2780
Description: (§1) All of the compounds were dissolved in dimethyl sulfoxide (DMSO) to achieve a 20 mM stock solution. Cells were seeded in cell culture flasks 24 h before treatment. The treatment was performed for 24 h.
(§2) The cytotoxicity of the drugs was determined in 2D tumor models using sulforhodamine B (SRB) assays. Treatment started 24 h after seeding the tumor cells in 96-well plates as previously described.

[3] = system: MCF-7 breast cancer cells; experiment: SRB cytotoxicity assay, MCF-7; type: cell-based; conditions: Homo sapiens, MCF7; SRB assay, 96 h incubation, mean ± SD; read-out: IC50 MCF-7
Description: as §1, §2

hypoxia-induced hCA IX = hypoxia-induced hCA IX (Homo sapiens, UniProt Q16790); experiment: Cell-based hCA IX inhibition, Wilbur-Anderson method, hypoxic Hs578T cells; conditions: 20 µM, 3 h, vs untreated hypoxic cells
A375 melanoma cells = experiment: SRB cytotoxicity assay, A375; type: cell-based; conditions: Homo sapiens, A-375; SRB assay, 96 h incubation, mean ± SD; read-out: IC50 A375
Description: as §1, §2

Hs578T spheroids = system: Hs578T spheroids; parameters: method as in PMID 36780832; conditions: Hs578T versus MDA-MB-231 spheroids; cited from earlier work

Row | Ki Values of hCA IX [1] | inhibition of hypoxia-induced hCA IX activity (relative WAU) (hypoxia-induced hCA IX) | SMILES | IC50 [2] [µM] | IC50 [3] [µM] | IC50 (A375 melanoma cells) [µM] | resistance of Hs578T spheroids (Hs578T spheroids) [fold]
1 | n.i. | no potential to inhibit hCA IX activity | C=C(C)[C@@H]1CC[C@]2(C(=O)O)CC[C@]3(C)[C@H](CC[C@@H]4[C@@]5(C)CC[C@H](O)C(C)(C)[C@@H]5CC[C@]43C)[C@@H]12 [BA, betulinic acid] | 12.5 ± 1.8 | 13 ± 1 | 13.1 ± 0.9 | –
2 | – | – | CC(=O)O[C@H]1C(=O)[C@@]2(C)[C@H]([C@H](OC(=O)c3ccccc3)[C@]3(O)C[C@H](OC(=O)[C@H](O)[C@@H](NC(=O)c4ccccc4)c4ccccc4)C(C)=C1C3(C)C)[C@]1(OC(C)=O)CO[C@@H]1C[C@@H]2O [paclitaxel] | – | – | – | 20
3 | – | – | COc1cccc2c1C(=O)c1c(O)c3c(c(O)c1C2=O)C[C@@](O)(C(=O)CO)C[C@@H]3O[C@H]1C[C@H](N)[C@H](O)[C@H](C)O1 [doxorubicin] | – | – | – | 60
